Measurements from patent US10344025B2, “GLS1 inhibitors for treating disease” (Board of Regents, The University of Texas System, priority 2014, dated 2019).

How the values were obtained:
[1] = target: purified recombinant human GAC (GLS1) (Homo sapiens (Human), UniProt O94925); test: GLS1 Enzymatic Activity Assay (dual-coupled enzymatic assay, resorufin/Amplex UltraRed readout); assay type: biochemical;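 further: glutamate from GAC coupled via glutamate oxidase and peroxidase to resorufin, read as fluorescence (ex 530, em 590 nm) kinetically or at 20 min, four-parameter logistic IC50 fit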
A549 cells = test: Proliferation Assay (A549 viability, Cell Titer Fluor, 72 hours); assay type: cell-based; conditions: Homo sapiens, A549, 72 h
Outline: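 A549 cells seeded at 1000 cells/well, rested 24 h, then exposed to compound in 0.5% DMSO for 72 h at 37 °C. Viability read by Cell Titer Fluor fluorescence; IC50 from four-parameter logistic fit.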

Chain of purified recombinant human GAC (GLS1) (O94925 other isoform, or with tags, fused parts or gaps): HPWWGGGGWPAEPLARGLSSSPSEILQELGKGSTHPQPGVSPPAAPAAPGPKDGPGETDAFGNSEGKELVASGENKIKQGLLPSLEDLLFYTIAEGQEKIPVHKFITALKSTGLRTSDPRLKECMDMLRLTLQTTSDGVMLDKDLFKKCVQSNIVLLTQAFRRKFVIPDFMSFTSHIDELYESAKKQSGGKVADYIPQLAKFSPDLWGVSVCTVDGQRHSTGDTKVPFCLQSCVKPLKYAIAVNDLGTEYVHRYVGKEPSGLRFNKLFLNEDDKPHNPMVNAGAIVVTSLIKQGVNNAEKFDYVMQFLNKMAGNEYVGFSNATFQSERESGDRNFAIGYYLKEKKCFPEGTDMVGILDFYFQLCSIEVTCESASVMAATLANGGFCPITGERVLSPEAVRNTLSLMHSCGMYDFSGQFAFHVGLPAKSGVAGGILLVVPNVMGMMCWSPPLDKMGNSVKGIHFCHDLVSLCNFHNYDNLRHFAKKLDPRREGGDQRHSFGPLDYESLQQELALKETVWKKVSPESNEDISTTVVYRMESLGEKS

| Structure (SMILES) | IC50 [1] [µM] | EC50 (A549 cells) [µM] |
| --- | --- | --- |
| O=C(NCc1cccc(OC(F)(F)F)c1)c1cn(CCCCc2nnc(C(=O)NCc3cccc(OC(F)(F)F)c3)s2)nn1 [Example 46, N-{[3-(trifluoromethoxy)phenyl]methyl}-5-{4-[4-({[3-(trifluoromethoxy)phenyl]methyl}carbamoyl)-1H-1,2,3-triazol-1-yl]butyl}-1,3,4-thiadiazole-2-carboxamide] | < 0.1 | < 0.1 |
| COCCNC(=O)c1nnc(CCCCn2cc(C(=O)NCc3ccccc3)nn2)s1 [Example 52, 5-{4-[4-(benzylcarbamoyl)-1H-1,2,3-triazol-1-yl]butyl}-N-(2-methoxyethyl)-1,3,4-thiadiazole-2-carboxamide] | 0.5 to 5 | > 5 |
| CCOC(=O)NCc1cn(CCCCn2cc(C(=O)NCc3cccc(OC(F)(F)F)c3)nn2)nn1 [Example 54, ethyl N-[(1-{4-[4-({[3-(trifluoromethoxy)phenyl]methyl}carbamoyl)-1H-1,2,3-triazol-1-yl]butyl}-1H-1,2,3-triazol-4-yl)methyl] carbamate] | 0.1 to 0.5 | 0.1 to 0.5 |
| CC(C)CC(=O)NCc1cn(CCCCn2cc(C(=O)NCc3cccc(OC(F)(F)F)c3)nn2)nn1 [Example 55, l-(4-{4-[(3-methylbutanamido)methyl]-1H-1,2,3-triazol-1-yl}butyl)-N-{[3-(trifluoromethoxy)phenyl]methyl}-1H-1,2,3-triazole-4-carboxamide] | 0.1 to 0.5 | 0.5 to 5 |
| CC(C)COC(=O)NCc1cn(CCCCn2cc(C(=O)NCc3cccc(OC(F)(F)F)c3)nn2)nn1 [Example 56, 2-methylpropyl N-[(1-{4-[4-({[3-(trifluoromethoxy)phenyl]methyl}carbamoyl)-1H-1,2,3-triazol-1-yl]butyl}-1H-1,2,3-triazol-4-yl)methyl]carbamate] | < 0.1 | < 0.1 |
| Cc1ccc(CNC(=O)c2nnc(CCCCn3cc(C(=O)NCc4cccc(OC(F)(F)F)c4)nn3)s2)cn1 [Example 60, N-[(6-methylpyridin-3-yl)methyl]-5-{4-[4-({[3-(trifluoromethoxy)phenyl]methyl}carbamoyl)-1H-1,2,3-triazol-1-yl]butyl}-1,3,4-thiadiazole-2-carboxamide] | < 0.1 | < 0.1 |
| Cc1ccc(CNC(=O)c2cn(CCCCc3nnc(C(=O)NCc4ccccn4)s3)nn2)cn1 [Example 62, 5-[4-(4-{[(6-methylpyridin-3-yl)methyl]carbamoyl}-1H-1,2,3-triazol-1-yl)butyl]-N-(pyridin-2-ylmethyl)-1,3,4-thiadiazole-2-carboxamide] | 0.1 to 0.5 | 0.5 to 5 |
| Cc1ccc(CNC(=O)c2cn(CCCCc3nnc(C(=O)NCC4CC4)s3)nn2)cn1 [Example 63, N-(cyclopropylmethyl)-5-[4-(4-{[(6-methylpyridin-3-yl)methyl]carbamoyl}-1H-1,2,3-triazol-1-yl)butyl]-1,3,4-thiadiazole-2-carboxamide] | 0.1 to 0.5 | 0.5 to 5 |
| Cc1ccc(CNC(=O)c2cn(CCCCc3nnc(C(=O)NCc4ccc(C)nc4)s3)nn2)cn1 [Example 64, N-[(6-methylpyridin-3-yl)methyl]-5-[4-(4-{[(6-methylpyridin-3-yl)methyl]carbamoyl}-1H-1,2,3-triazol-1-yl)butyl]-1,3,4-thiadiazole-2-carboxamide] | < 0.1 | 0.5 to 5 |
| Cc1ccc(CNC(=O)c2cn(CCCCn3cc(C(=O)NCc4cccc(OC(F)(F)F)c4)nn3)nn2)cn1 [Example 72, 1-[4-(4-{[(6-methylpyridin-3-yl)methyl]carbamoyl}-1H-1,2,3-triazol-1-yl)butyl]-N-{[3-(trifluoromethoxy)phenyl]methyl}-1H-1,2,3-triazole-4-carboxamide] | < 0.1 | < 0.1 |
| CC(C)(C)OC(=O)N1CC(CNC(=O)c2nnc(CCCCn3cc(C(=O)NCc4cccc(OC(F)(F)F)c4)nn3)s2)C1 [Example 73, tert-butyl 3-{[(5-{4-[4-({[3-(trifluoromethoxy)phenyl]methyl}carbamoyl)-1H-1,2,3-triazol-1-yl]butyl}-1,3,4-thiadiazol-2-yl)formamido]methyl}azetidine-1-carboxylate] | < 0.1 | < 0.1 |

Results, then the compound that gave them:

| IC50 [1] [µM] | EC50 (A549 cells) [µM] | Structure (SMILES) |
| --- | --- | --- |
| 0.1 to 0.5 | 0.5 to 5 | O=C(NCc1cccc(OC(F)(F)F)c1)c1cn(CCCCc2nnc(C(=O)NCCO)s2)nn1 [Example 45, N-(2-hydroxyethyl)-5-{4-[4-({[3-(trifluoromethoxy)phenyl]methyl}carbamoyl)-1H-1,2,3-triazol-1-yl]butyl}-1,3,4-thiadiazole-2-carboxamide] |
| < 0.1 | 0.1 to 0.5 | O=C(NCc1cccc(OC(F)(F)F)c1)c1cn(CCCCc2nnc(C(=O)NCc3ccccn3)s2)nn1 [Example 47, N-(pyridin-2-ylmethyl)-5-{4-[4-({[3-(trifluoromethoxy)phenyl]methyl}carbamoyl)-1H-1,2,3-triazol-1-yl]butyl}-1,3,4-thiadiazole-2-carboxamide] |
| 0.5 to 5 | 0.5 to 5 | CC(C)(O)CNC(=O)c1nnc(CCCCn2cc(C(=O)NCc3cccc(OC(F)(F)F)c3)nn2)s1 [Example 48, N-(2-hydroxy-2-methylpropyl)-5-{4-[4-({[3-(trifluoromethoxy)phenyl]methyl}carbamoyl)-1H-1,2,3-triazol-1-yl]butyl}-1,3,4-thiadiazole-2-carboxamide] |
| 0.5 to 5 | > 5 | O=C(NCc1cccc(OC(F)(F)F)c1)c1cn(CCCCc2nnc(C(=O)NCCN3CCCC3)s2)nn1 [Example 49, N-[2-(pyrrolidin-1-yl)ethyl]-5-{4-[4-({[3-(trifluoromethoxy)phenyl]methyl}carbamoyl)-1H-1,2,3-triazol-1-yl]butyl}-1,3,4-thiadiazole-2-carboxamide] |
| 0.1 to 0.5 | 0.5 to 5 | O=C(NCc1cccc(OC(F)(F)F)c1)c1cn(CCCCc2nnc(C(=O)NCC3COC3)s2)nn1 [Example 50, N-(oxetan-3-ylmethyl)-5-{4-[4-({[3-(trifluoromethoxy)phenyl]methyl}carbamoyl)-1H-1,2,3-triazol-1-yl]butyl}-1,3,4-thiadiazole-2-carboxamide] |
| 0.1 to 0.5 | 0.5 to 5 | O=C(NCc1cccc(OC(F)(F)F)c1)c1cn(CCCCc2nnc(C(=O)NC3COC3)s2)nn1 [Example 51, N-(oxetan-3-yl)-5-{4-[4-({[3-(trifluoromethoxy)phenyl]methyl}carbamoyl)-1H-1,2,3-triazol-1-yl]butyl}-1,3,4-thiadiazole-2-carboxamide] |
| 0.1 to 0.5 | 0.5 to 5 | O=C(NCc1cccc(OC(F)(F)F)c1)c1cn(CCCCc2nnc(C(=O)NCC3CC3)s2)nn1 [Example 59, N-(cyclopropylmethyl)-5-{4-[4-({[3-(trifluoromethoxy)phenyl]methyl}carbamoyl)-1H-1,2,3-triazol-1-yl]butyl}-1,3,4-thiadiazole-2-carboxamide] |
| < 0.1 | < 0.1 | Cc1ccc(CNC(=O)c2cn(CCCCc3nnc(C(=O)NCc4cccc(OC(F)(F)F)c4)s3)nn2)cn1 [Example 61] |
| < 0.1 | 0.1 to 0.5 | O=C(NCc1ccccn1)c1cn(CCCCc2nnc(C(=O)NCc3cccc(OC(F)(F)F)c3)s2)nn1 [Example 65, 5-(4-{4-[(pyridin-2-ylmethyl)carbamoyl]-1H-1,2,3-triazol-1-yl}butyl)-N-{[3-(trifluoromethoxy)phenyl]methyl}-1,3,4-thiadiazole-2-carboxamide] |
